According to ChEMBL document CHEMBL1149322, “Carbonic anhydrase inhibitors. Inhibition of mitochondrial isozyme V with aromatic and heterocyclic sulfonamides” (J Med Chem, 2004):

Assays:
Carbonic anhydrase 4 = biological target: T1, Carbonic anhydrase 4 (Bos taurus, UniProt Q95323)
T1 sequence (Q95323 whole entry): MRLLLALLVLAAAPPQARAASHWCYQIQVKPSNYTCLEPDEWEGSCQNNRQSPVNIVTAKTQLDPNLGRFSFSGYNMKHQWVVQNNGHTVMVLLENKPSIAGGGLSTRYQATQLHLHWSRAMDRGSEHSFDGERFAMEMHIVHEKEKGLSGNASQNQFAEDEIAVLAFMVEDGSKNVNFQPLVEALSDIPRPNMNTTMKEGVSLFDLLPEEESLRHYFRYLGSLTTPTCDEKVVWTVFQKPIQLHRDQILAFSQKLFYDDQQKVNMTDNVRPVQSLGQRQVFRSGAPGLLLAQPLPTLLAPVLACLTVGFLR

Carbonic anhydrase 2 = Carbonic anhydrase 2 (Homo sapiens, UniProt P00918)
Carbonic anhydrase 1 = Carbonic anhydrase 1 (Homo sapiens, UniProt P00915)
Sequence of Carbonic anhydrase 1 (P00915 whole entry): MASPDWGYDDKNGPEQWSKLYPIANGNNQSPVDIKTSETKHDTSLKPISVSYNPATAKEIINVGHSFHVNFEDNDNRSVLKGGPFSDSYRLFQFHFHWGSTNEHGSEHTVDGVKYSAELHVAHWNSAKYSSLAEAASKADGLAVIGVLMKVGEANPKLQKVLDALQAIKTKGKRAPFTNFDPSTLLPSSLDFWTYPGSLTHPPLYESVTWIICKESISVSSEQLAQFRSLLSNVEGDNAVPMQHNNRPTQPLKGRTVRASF

Compound	Ki (Carbonic anhydrase 4) [nM]	Ki (Carbonic anhydrase 2) [nM]	Ki (Carbonic anhydrase 1) [nM]
CC(C)(C)C(=O)Nc1ccc(S(N)(=O)=O)cc1	2550	–	–
CC(=O)Nc1ccc(S(=O)(=O)NCCc2ccc(S(N)(=O)=O)cc2)cc1	119	75	187
CC(C)C(=O)Nc1ccc(S(N)(=O)=O)cc1	2840	–	–
CCCC(=O)Nc1ccc(S(N)(=O)=O)cc1	2540	–	–
NS(=O)(=O)c1ccc(CNC(=O)c2cc3ccccc3oc2=O)cc1	–	–	69
NS(=O)(=O)c1ccc(NS(=O)(=O)c2ccccc2)cc1	85	–	–
NS(=O)(=O)c1ccc(NS(=O)(=O)c2ccc(F)cc2)cc1	15	9	40
NS(=O)(=O)c1ccc(NC(=O)c2cc3ccccc3oc2=O)cc1	–	–	74
NS(=O)(=O)c1ccc(/N=C\c2ncc[nH]2)cc1	130	120	1000
Cn1nc(S(N)(=O)=O)s/c1=N/C(=O)CCCCC(F)(F)C(F)(F)F	8	–	270
NS(=O)(=O)c1ccc(CCNC(=O)Nc2ccc(Cl)c(Cl)c2)cc1	20	13	12
CCC(=O)Nc1ccc(S(N)(=O)=O)cc1	2630	–	–
NS(=O)(=O)c1ccc(CNC(=O)Nc2ccccc2)cc1	140	–	800
NS(=O)(=O)c1nnc(NC(=O)c2ccccc2)s1	163	–	900
CC(=O)Nc1ccc(S(=O)(=O)Nc2nnc(S(N)(=O)=O)s2)cc1	8	3	–
Cn1nc(S(N)(=O)=O)s/c1=N/C(=O)c1ccco1	30	6	290
CCCCC(=O)Nc1ccc(S(N)(=O)=O)cc1	2370	–	–
NS(=O)(=O)c1nnc(NC(=O)CCCCC(F)(F)C(F)(F)F)s1	10	2	250
CC(=O)Nc1ccc(S(N)(=O)=O)cc1	2850	246	21400

Further lines, results first:

Ki (Carbonic anhydrase 4) [nM]	Ki (Carbonic anhydrase 2) [nM]	Ki (Carbonic anhydrase 1) [nM]	Compound
45	–	–	CCN[C@H]1CC(CCCOC)S(=O)(=O)c2sc(S(N)(=O)=O)cc21 (stereo not given in full)
4	2	–	CC(=O)Nc1ccc(S(=O)(=O)Nc2nnc(S(N)(=O)=O)s2)cc1Br
980	63	14200	CCCCCC(=O)Nc1ccc(S(N)(=O)=O)cc1
–	–	66	NS(=O)(=O)c1ccc(CCNC(=O)c2cc3ccccc3oc2=O)cc1
64	–	–	NS(=O)(=O)c1ccc(CNS(=O)(=O)c2ccccc2)cc1
4	1	5	CC(=O)Nc1ccc(S(=O)(=O)Nc2nnc(S(N)(=O)=O)s2)cc1Cl
176	–	–	NS(=O)(=O)c1ccc(NC(=O)c2ccccc2)cc1
185	–	645	CC(C)(C)C(=O)Nc1nnc(S(N)(=O)=O)s1
39	28	69	NS(=O)(=O)c1ccc(CCNS(=O)(=O)c2ccccc2)cc1
22	10	31	NS(=O)(=O)c1ccc(NS(=O)(=O)c2ccc([N+](=O)[O-])cc2)cc1
–	1	6	CC(=O)Nc1ccc(S(=O)(=O)Nc2nnc(S(N)(=O)=O)s2)cc1F
174	17	850	Cn1nc(S(N)(=O)=O)s/c1=N/C(=O)c1ccccc1
600	–	950	NS(=O)(=O)c1ccc(NC(=O)CCCCC(F)(F)C(F)(F)F)cc1
2100	–	–	NS(=O)(=O)c1ccc(NC(=O)C(F)(F)F)cc1
